Key:
HepG2 cells = assay: HepG2 cell viability analysis (MTT); type: cell-based
Experimental: Cells were plated at 10,000 cell per well in 96-well plates and allowed to attach overnight under the growth conditions described above. […] These compounds were dissolved in 100% DMSO and diluted with EMEM to the desired concentration of 0.1 μM, 1.0 μM, 10 μM, 25 μM, and 50 μM, with a final DMSO concentration of 0.1% for all cell-based in vitro studies. All studies included DMSO as a solvent control. Cell viability was determined using the MTT Cell Viability Assay Kit from ATCC according to manufacturer's instructions. The 96-well plates were measure at 570 nm using SpectroMax 190 plate reader (Molecular Devices, Sunnyvale, Calif.). […] Each concentration was performed in triplicate per 96-well plate and EC50 data are presented as the mean±standard deviation from at least 3 separate experiments performed on separate days.

[1] = tested on: MMP activity in HUVEC cells; assay: Matrix metalloproteinase (MMP) assay by zymography, HUVEC cells; type: cell-based, human; settings: FIG. 17 right
Experimental: (§1) MMP activity in PC-3 and HUVEC cells were carried out by zymography (J Vis Exp, e2445). […] After that, the gels were incubated at renaturing buffer for 30 min, followed with incubation at zymography developing buffer for 30 min at room temperature, and replaced with fresh developing buffer and incubated at 37° C. overnight. The gels were stained by Coomassie blue, and images were recorded and analyzed by NIH Image J software.

Met-1 breast cancer = assay: In vivo Met-1 tumor growth; settings: FVB mice, 0.1 mg/kg/day by mini-pump, FIG. 16
From the text: Cells derived from highly metastatic breast cancer Met-1 will be transplanted into the fat pads of FVB female mice. […] Over this period, animals will be checked 3 times per week with ultrasound to mark changes in tumor growth and size. Ultrasound contrast agent microbubbles will also be administered during each ultrasound session by IV injection to track changes in tumor vasculature (Invest Radiol 46, 215-224).

ovine COX-1 = molecular target: T1, ovine COX-1 (Ovis aries, UniProt P05979); assay: Cyclooxygenase inhibition assay (COX Fluorescent Inhibitor Screening Assay Kit), COX-1; type: biochemical
T1 construct: purchased Cayman Chemical 700100
T1 sequence (P05979 25-600): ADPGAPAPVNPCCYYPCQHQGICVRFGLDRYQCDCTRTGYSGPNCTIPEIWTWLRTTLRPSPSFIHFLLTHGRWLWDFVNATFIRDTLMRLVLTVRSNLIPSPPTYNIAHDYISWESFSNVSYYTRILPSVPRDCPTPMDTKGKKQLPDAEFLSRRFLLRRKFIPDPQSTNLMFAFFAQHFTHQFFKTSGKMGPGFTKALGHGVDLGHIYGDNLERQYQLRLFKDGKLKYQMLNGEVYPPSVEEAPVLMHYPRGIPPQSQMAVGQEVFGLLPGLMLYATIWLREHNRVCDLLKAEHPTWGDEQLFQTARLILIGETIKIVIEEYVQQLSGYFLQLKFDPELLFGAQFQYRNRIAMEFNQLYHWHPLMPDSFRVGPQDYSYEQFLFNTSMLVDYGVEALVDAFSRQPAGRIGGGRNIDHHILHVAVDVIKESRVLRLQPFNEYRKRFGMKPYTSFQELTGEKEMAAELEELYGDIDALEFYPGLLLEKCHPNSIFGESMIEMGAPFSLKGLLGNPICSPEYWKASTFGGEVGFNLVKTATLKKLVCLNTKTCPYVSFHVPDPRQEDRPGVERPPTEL

[2] = Pharmacokinetics in rats by oral administration
[3] = tested on: MMP activity in PC-3 cells; assay: Matrix metalloproteinase (MMP) assay by zymography, PC-3 cells; type: cell-based; settings: FIG. 17 left
Experimental: as §1

[4] = 21i in comparison with 21j, rats oral 1 mg/kg
[5] = rats, oral administration at 1 mg/kg (n = 4), blood

In the case of NS(=O)(=O)c1ccc(-n2nc(CCCNC(=O)Nc3ccc(C(F)(F)F)cc3)cc2-c2ccccc2)cc1 [Compound 21i, 4-(5-Phenyl-3-{3-[3-(4-trifluoromethyl-phenyl)-ureido]-propyl}-pyrazol-1-yl)-benzenesulfonamide], the EC50 (HepG2 cells; Homo sapiens, HepG2, MTT after 24 hours of incubation) is reported as 4.5 ± 0.5 µM, the “Effect on HepG2 cell viability (killing cancer cells), in words” value (HepG2 cells; dose dependence, FIG. 9) is reported as “more efficient than Celecoxib in combination or not with t-TUCB in killing the cancer cells” and the “MMP activity, in words” value [1] is reported as “no effect on MMP activity”. For the same molecule, the “Primary tumor growth of Met-1 breast cancer, in words” value (Met-1 breast cancer) was “inhibits primary tumor growth”, the IC50 (ovine COX-1) was > 100 µM and the inhibition at 100 µM (ovine COX-1; read-out: COX-1 (% inhibition)) was 22.7%. For the same molecule, the “Higher AUC in rats” value [2, 4] was 2 fold, the “Higher Cmax in rats” value [2, 4] was 2 fold and the AUC [2, 5] was 2.764 ± 0.804 µM·h. The Cmax [2, 5] was 415 ± 139 nM, the Tmax [2, 5] was 1.5 ± 0.6 h and the t1/2 [2, 5] was 12.9 ± 3.8 h. For the same molecule, the “MMP activity, in words” value [3] was “no effect on MMP activity”.
